In patent US8940731B2, “Substituted pyridyl amide compounds as modulators of the histamine H3 receptor” (Janssen Pharmaceutica NV, priority 2006, dated 2015):
Structures can show the parent of a compound that is named as a salt.

molecular target: T1, cloned human H3 receptors (Homo sapiens, UniProt Q9Y5N1); assay: H3 Receptor Binding (Human); settings: bromo-pyridine intermediates (Step A), value given in the synthesis; read-out: Assay 1 (Human H3): Ki
T1 construct: expressed in transfected cells
Experimental: H3 Receptor Binding (Human)
Binding of compounds to the cloned human H3 receptors, stably expressed in SK-N-MC cells, was performed as described by Barbier, A. J. et al. (Br. J. Pharmacol. 2004, 143(5), 649-661).

T1 sequence (Q9Y5N1 whole entry): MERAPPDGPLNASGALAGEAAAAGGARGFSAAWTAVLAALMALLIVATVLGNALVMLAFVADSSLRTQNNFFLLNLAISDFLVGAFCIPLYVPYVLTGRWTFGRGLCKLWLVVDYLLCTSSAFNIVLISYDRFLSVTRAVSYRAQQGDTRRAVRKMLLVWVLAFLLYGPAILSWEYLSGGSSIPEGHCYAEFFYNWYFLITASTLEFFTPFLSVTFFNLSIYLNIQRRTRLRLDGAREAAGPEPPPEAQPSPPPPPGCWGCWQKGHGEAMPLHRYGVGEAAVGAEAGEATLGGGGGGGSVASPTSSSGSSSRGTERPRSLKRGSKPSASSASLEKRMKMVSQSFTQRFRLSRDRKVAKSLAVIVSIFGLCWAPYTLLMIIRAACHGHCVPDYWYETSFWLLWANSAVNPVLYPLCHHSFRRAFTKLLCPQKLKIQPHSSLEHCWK

| Compound | Ki [nM] |
| --- | --- |
| O=C(c1ccc(Br)cn1)N1CCCN(C2CC2)CC1 [(5-Bromo-pyridin-2-yl)-(4-cyclopropyl-[1,4]diazepan-1-yl)-methanone] | 115 |
| CC(C)N1CCCN(C(=O)c2cccc(Br)n2)CC1 [(6-Bromo-pyridin-2-yl)-(4-isopropyl-[1,4]diazepan-1-yl)-methanone] | 752 |

same assay, conditions: cloned human H3 receptors stably expressed in SK-N-MC cells; average of the results obtained; read-out: Human H3 Ki

| Compound | Ki [nM] |
| --- | --- |
| O=C(c1ccc(Oc2ccccc2Cl)nc1)N1CCN(C2CCCC2)CC1 [Example 76, [6-(2-Chloro-phenoxy)-Pyridin-3-yl]-(4-cyclopentyl-piperazin-1-yl)-methanone] | 19 |
| O=C(c1cccc(Oc2ccc(Cl)c(Cl)c2)n1)N1CCCN(C2CCC2)CC1 [Example 45, (4-Cyclobutyl-[1,4]diazepan-1-yl)-[6-(3,4-dichloro-phenoxy)-pyridin-2-yl]-methanone] | 34 |
| CC(C)N1CCCN(C(=O)c2ccc(Oc3cccc(F)c3)nc2)CC1 [Example 38, [6-(3-Fluoro-phenoxy)-pyridin-3-yl]-(4-isopropyl-[1,4]diazepan-1-yl)-methanone] | 6 |
| O=C(c1ccc(Sc2ccc(F)cc2)nc1)N1CCCN(C2CCC2)CC1 [Example 97, (4-Cyclobutyl-[1,4]diazepan-1-yl)-[6-(4-fluoro-phenylsulfanyl)-pyridin-3-yl]-methanone] | 1 |
| CN1CCCN(C(=O)c2ccc(Oc3ccc(F)cc3)nc2)CC1 [Example 80, [6-(4-Fluoro-phenoxy)-pyridin-3-yl]-(4-methyl-[1,4]diazepan-1-yl)-methanone] | 253 |
| N#Cc1nc(C(=O)N2CCCN(C3CC3)CC2)ccc1Oc1ccccc1 [Example 81, 6-(4-Cyclopropyl-[1,4]diazepane-1-carbonyl)-3-phenoxy-pyridine-2-carbonitrile] | 3 |
| CC(C)N1CCN(C(=O)c2ccc(Oc3ccc(Cl)cc3)nc2)CC1 [Example 8, [6-(4-Chloro-phenoxy)-pyridin-3-yl]-(4-isopropyl-piperazin-1-yl)-methanone] | 68 |
| CC(C)N1CCN(C(=O)c2ccc(Oc3ccc(Cl)c(Cl)c3)c(C(N)=O)n2)CC1 [Example 54, 3-(3,4-Dichloro-phenoxy)-6-(4-isopropyl-piperazine-1-carbonyl)-pyridine-2-carboxylic acid amide trifluoroacetic acid salt] | 104 |
| CC(C)N1CCN(C(=O)c2ccc(Oc3ccc(Cl)c(Cl)c3)c(C#N)n2)CC1 [Example 53, 3-(3,4-Dichloro-phenoxy)-6-(4-isopropyl-piperazine-1-carbonyl)-pyridine-2-carbonitrile trifluoroacetic acid salt] | 49 |
| CSc1ccc(Oc2ccc(C(=O)N3CCCN(C4CC4)CC3)nc2C#N)cc1 [Example 55, 6-(4-Cyclopropyl-[1,4]diazepane-1-carbonyl)-3-(4-methylsulfanyl-phenoxy)-pyridine-2-carbonitrile] | 21 |
| O=C(c1ccc(Oc2ccc(Cl)cc2)nc1)N1CCN(C2CCCC2)CC1 [Example 77, [6-(4-Chloro-phenoxy)-Pyridin-3-yl]-(4-cyclopentyl-piperazin-1-yl)-methanone] | 22 |
| O=C(c1ccc(Oc2cc(Cl)cc(Cl)c2)nc1)N1CCCN(C2CC2)CC1 [Example 35, (4-Cyclopropyl-[1,4]diazepan-1-yl)-[6-(3,5-dichloro-phenoxy)-pyridin-3-yl]-methanone] | 3 |
| O=C(c1ccc(Sc2ccccc2)cn1)N1CCCN(C2CCC2)CC1 [Example 91, (4-Cyclobutyl-[1,4]diazepan-1-yl)-(5-phenylsulfanyl-pyridin-2-yl)-methanone] | 3 |
| CC(C)N1CCN(C(=O)c2cccc(Oc3ccc(Cl)c(Cl)c3)n2)CC1 [Example 43, [6-(3,4-Dichloro-phenoxy)-pyridin-2-yl]-(4-isopropyl-piperazin-1-yl)-methanone] | 299 |
| O=C(c1ccc(Oc2cc(Cl)cc(Cl)c2)nc1)N1CCCN(C2CCC2)CC1 [Example 33, (4-Cyclobutyl-[1,4]diazepan-1-yl)-[6-(3,5-dichloro-phenoxy)-pyridin-3-yl]-methanone] | 1 |
| CCN1CCCN(C(=O)c2ccc(Oc3ccc(F)cc3)nc2)CC1 [Example 98, (4-Ethyl-[1,4]diazepan-1-yl)-[6-(4-fluoro-phenoxy)-pyridin-3-yl]-methanone] | 19 |
| O=C(c1ccc(Oc2ccc(F)cc2)nc1)N1CCN(C2CCC2)CC1 [Example 79, (4-Cyclobutyl-piperazin-1-yl)-[6-(4-fluoro-phenoxy)-pyridin-3-yl]-methanone] | 10 |
| O=C(c1cccc(Oc2ccc(Cl)c(Cl)c2)n1)N1CCCN(C2CC2)CC1 [Example 44, (4-Cyclopropyl-[1,4]diazepan-1-yl)-[6-(3,4-dichloro-phenoxy)-pyridin-2-yl]-methanone] | 327 |
| CSc1ccc(Oc2ccc(C(=O)N3CCCN(C4CC4)CC3)nc2C(N)=O)cc1 [Example 62, 6-(4-Cyclopropyl-[1,4]diazepane-1-carbonyl)-3-(4-methylsulfanyl-phenoxy)-pyridine-2-carboxylic acid amide] | 36 |
| N#Cc1nc(C(=O)N2CCCN(C3CCC3)CC2)ccc1Oc1ccc(F)cc1 [Example 82, 6-(4-Cyclobutyl-[1,4]diazepane-1-carbonyl)-3-(4-fluoro-phenoxy)-pyridine-2-carbonitrile] | 1 |

| Compound | Ki [nM] |
| --- | --- |
| O=C(c1ccc(Oc2ccccc2F)cn1)N1CCCN(C2CCC2)CC1 [Example 72, (4-Cyclobutyl-[1,4]diazepan-1-yl)-[5-(2-fluoro-phenoxy)-pyridin-2-yl]-methanone] | 2 |
| O=C(c1ccc(Oc2ccccc2F)nc1)N1CCN(C2CCCC2)CC1 [Example 78] | 24 |
| O=C(c1ccc(Oc2cccc(F)c2)cn1)N1CCCN(C2CCC2)CC1 [Example 71, (4-Cyclobutyl-[1,4]diazepan-1-yl)-[5-(3-fluoro-phenoxy)-pyridin-2-yl]-methanone trifluoroacetic acid salt] | 2 |
| O=C(c1ccc(Oc2cc(F)ccc2F)nc1)N1CCCN(C2CC2)CC1 [Example 34, (4-Cyclopropyl-[1,4]diazepan-1-yl)-[6-(2,5-difluoro-phenoxy)-pyridin-3-yl]-methanone] | 5 |
| CSc1ccc(Oc2ccc(C(=O)N3CCN(C4CCCC4)CC3)cn2)cc1C [Example 100, (4-Cyclopentyl-piperazin-1-yl)-[6-(3-methyl-4-methylsulfanyl-phenoxy)-pyridin-3-yl]-methanone] | 98 |
| N#Cc1nc(C(=O)N2CCCN(C3CC3)CC2)ccc1Oc1cccc(F)c1 [Example 60, 6-(4-Cyclopropyl-[1,4]diazepane-1-carbonyl)-3-(3-fluoro-phenoxy)-pyridine-2-carbonitrile] | 29 |
| CC(C)N1CCN(C(=O)c2ccc(Oc3cccnc3)nc2)CC1 [Example 2, (4-Isopropyl-piperazin-1-yl)-[6-(pyridin-3-yloxy)-pyridin-3-yl]-methanone] | 56 |
| O=C(c1ccc(Oc2ccc(F)cc2)cn1)N1CCCN(C2CCC2)CC1 [Example 69, (4-Cyclobutyl-[1,4]diazepan-1-yl)-[5-(4-fluoro-phenoxy)-pyridin-2-yl]-methanone trifluoroacetic acid salt] | 2 |
| Cc1cc(Oc2ccc(C(=O)N3CCN(C(C)C)CC3)cn2)ccc1Cl [Example 6, [6-(4-Chloro-3-methyl-phenoxy)-pyridin-3-yl]-(4-isopropyl-piperazin-1-yl)-methanone] | 32 |
| CSc1ccc(Oc2ccc(C(=O)N3CCCN(C(C)C)CC3)cn2)cc1C [Example 42, (4-Isopropyl-[1,4]diazepan-1-yl)-[6-(3-methyl-4-methylsulfanyl-phenoxy)-pyridin-3-yl]-methanone] | 12 |
| CC(C)N1CCCN(C(=O)c2ccc(Oc3ccc(Cl)c(Cl)c3)nc2)CC1 [Example 15, [6-(3,4-Dichloro-phenoxy)-pyridin-3-yl]-(4-isopropyl-[1,4]diazepan-1-yl)-methanone] | 8 |
| O=C(c1ccc(Oc2ccc(F)cc2)nc1)N1CCN(C2CC2)CC1 [Example 22, (4-Cyclopropyl-piperazin-1-yl)-[6-(4-fluoro-phenoxy)-pyridin-3-yl]-methanone] | 180 |
| CC(C)N1CCN(C(=O)c2ccc(Oc3ccc(Cl)c(Cl)c3)c(CN)n2)CC1 [Example 64, [6-Aminomethyl-5-(3,4-dichloro-phenoxy)-pyridin-2-yl]-(4-isopropyl-piperazin-1-yl)-methanone trifluoroacetic acid salt] | 165 |
| CC(C)N1CCN(C(=O)c2ccc(Oc3ccc(Cl)c(Cl)c3)nc2)CC1 [Example 1, [6-(3,4-Dichloro-phenoxy)-pyridin-3-yl]-(4-isopropyl-piperazin-1-yl)-methanone] | 29 |
| Cc1cc(Oc2ccc(C(=O)N3CCCN(C4CCC4)CC3)cn2)ccc1Cl [Example 16, [6-(4-Chloro-3-methyl-phenoxy)-pyridin-3-yl]-(4-cyclobutyl-[1,4]diazepan-1-yl)-methanone] | 2 |
| CSc1ccc(Oc2ccc(C(=O)N3CCN(C(C)C)CC3)cn2)cc1C [Example 101, (4-Isopropyl-piperazin-1-yl)-[6-(3-methyl-4-methylsulfanyl-phenoxy)-pyridin-3-yl]-methanone] | 59 |
| Cc1cc(Oc2cccc(C(=O)N3CCCN(C4CC4)CC3)n2)ccc1Cl [Example 47, [6-(4-Chloro-3-methyl-phenoxy)-pyridin-2-yl]-(4-cyclopropyl-[1,4]diazepan-1-yl)-methanone trifluoroacetic acid salt] | 357 |
| Cc1cccc(Oc2ccc(C(=O)N3CCCN(C4CCC4)CC3)cn2)c1 [Example 103, (4-Cyclobutyl-[1,4]diazepan-1-yl)-(6-m-tolyloxy-pyridin-3-yl)-methanone] | 1 |
| CSc1ccc(Oc2ccc(C(=O)N3CCN(C(C)C)CC3)cn2)cc1 [Example 3, (4-Isopropyl-piperazin-1-yl)-[6-(4-methylsulfanyl-phenoxy)-pyridin-3-yl]-methanone] | 66 |
